Test results reported in the NIST ThermoML archive (doi:10.1021/je060271a).
Numbers after ± are expanded uncertainties.

Settings: 303.15 K, Liquid, Vibrating tube method

CCCCCCC(=O)OCC(COC(=O)CCCCCC)(COC(=O)CCCCCC)COC(=O)CCCCCC [pentaerythritol tetraheptanoate]
Settings | mass density [kg/m3]
21619 kPa | 983.7 ± 1.2
21662 kPa | 983.7 ± 1.2
21713 kPa | 983.7 ± 1.2
21752 kPa | 983.7 ± 1.2
21789 kPa | 983.5 ± 1.2
21831 kPa | 983.9 ± 1.2
21867 kPa | 983.8 ± 1.2
21902 kPa | 983.8 ± 1.2
22017 kPa | 983.9 ± 1.2
22097 kPa | 984 ± 1.2
22133 kPa | 983.9 ± 1.2
22169 kPa | 984.1 ± 1.2
22213 kPa | 984 ± 1.2
22250 kPa | 983.9 ± 1.2
22286 kPa | 984.1 ± 1.2
22330 kPa | 984.1 ± 1.2
22368 kPa | 984.2 ± 1.2
22406 kPa | 984.1 ± 1.2
22450 kPa | 984.2 ± 1.2
22567 kPa | 984.2 ± 1.2
22651 kPa | 984.2 ± 1.2
22689 kPa | 984.3 ± 1.2
22735 kPa | 984.3 ± 1.2
22774 kPa | 984.3 ± 1.2
22813 kPa | 984.3 ± 1.2
22853 kPa | 984.3 ± 1.2
22901 kPa | 984.4 ± 1.2
23031 kPa | 984.5 ± 1.2
23066 kPa | 984.4 ± 1.2
23098 kPa | 984.5 ± 1.2
23130 kPa | 984.5 ± 1.2
23162 kPa | 984.4 ± 1.2
23201 kPa | 984.5 ± 1.2
23233 kPa | 984.6 ± 1.2
23266 kPa | 984.7 ± 1.2
23304 kPa | 984.6 ± 1.2
23337 kPa | 984.5 ± 1.2
23376 kPa | 984.7 ± 1.2
23409 kPa | 984.6 ± 1.2
23442 kPa | 984.6 ± 1.2
23475 kPa | 984.8 ± 1.2
23516 kPa | 984.8 ± 1.2
23549 kPa | 984.7 ± 1.2
23582 kPa | 984.8 ± 1.2
23622 kPa | 984.7 ± 1.2
23797 kPa | 984.9 ± 1.2
23831 kPa | 985 ± 1.2
23873 kPa | 984.9 ± 1.2
23908 kPa | 985 ± 1.2
23943 kPa | 985 ± 1.2
23985 kPa | 985 ± 1.2
24019 kPa | 984.9 ± 1.2
24054 kPa | 985 ± 1.2
24201 kPa | 985.1 ± 1.2
24243 kPa | 985.2 ± 1.2
24278 kPa | 985.2 ± 1.2
24320 kPa | 985.2 ± 1.2
24392 kPa | 985.2 ± 1.2
24436 kPa | 985.2 ± 1.2
24472 kPa | 985.4 ± 1.2
24509 kPa | 985.1 ± 1.2
24545 kPa | 985.2 ± 1.2
24588 kPa | 985.3 ± 1.2
24624 kPa | 985.4 ± 1.2
24661 kPa | 985.3 ± 1.2
24706 kPa | 985.3 ± 1.2
24743 kPa | 985.5 ± 1.2
24780 kPa | 985.5 ± 1.2
24825 kPa | 985.4 ± 1.2
24863 kPa | 985.4 ± 1.2
24901 kPa | 985.4 ± 1.2
24947 kPa | 985.5 ± 1.2
24984 kPa | 985.5 ± 1.2
25022 kPa | 985.6 ± 1.2
25060 kPa | 985.5 ± 1.2
25106 kPa | 985.6 ± 1.2
25144 kPa | 985.5 ± 1.2
25182 kPa | 985.7 ± 1.2
25228 kPa | 985.7 ± 1.2
25267 kPa | 985.6 ± 1.2
25306 kPa | 985.6 ± 1.2
25353 kPa | 985.7 ± 1.2
25392 kPa | 985.7 ± 1.2
25431 kPa | 985.8 ± 1.2
25472 kPa | 985.7 ± 1.2
25520 kPa | 985.8 ± 1.2
25560 kPa | 986 ± 1.2
25601 kPa | 986 ± 1.2
25648 kPa | 985.9 ± 1.2
25688 kPa | 985.8 ± 1.2
25729 kPa | 985.9 ± 1.2
25778 kPa | 985.9 ± 1.2
25818 kPa | 986 ± 1.2
25860 kPa | 986 ± 1.2
25901 kPa | 986.1 ± 1.2
25951 kPa | 986 ± 1.2
25994 kPa | 986 ± 1.2
26038 kPa | 986 ± 1.2
26079 kPa | 986.1 ± 1.2
26130 kPa | 986.1 ± 1.2
26172 kPa | 986.2 ± 1.2
26215 kPa | 986.2 ± 1.2
26266 kPa | 986.2 ± 1.2
26309 kPa | 986.3 ± 1.2
26347 kPa | 986.3 ± 1.2
26391 kPa | 986.3 ± 1.2
26429 kPa | 986.4 ± 1.2
26466 kPa | 986.4 ± 1.2
26512 kPa | 986.4 ± 1.2
26551 kPa | 986.4 ± 1.2
26590 kPa | 986.3 ± 1.2
26628 kPa | 986.5 ± 1.2
26666 kPa | 986.5 ± 1.2
26712 kPa | 986.5 ± 1.2
26749 kPa | 986.4 ± 1.2
26795 kPa | 986.4 ± 1.2
26834 kPa | 986.6 ± 1.2
26872 kPa | 986.6 ± 1.2
26910 kPa | 986.6 ± 1.2
26957 kPa | 986.6 ± 1.2
26996 kPa | 986.6 ± 1.2
27043 kPa | 986.5 ± 1.2
27083 kPa | 986.7 ± 1.2
27122 kPa | 986.7 ± 1.2
27169 kPa | 986.7 ± 1.2
27209 kPa | 986.8 ± 1.2
27249 kPa | 986.7 ± 1.2
27289 kPa | 987 ± 1.2
27337 kPa | 986.8 ± 1.2
27376 kPa | 986.8 ± 1.2
27425 kPa | 986.9 ± 1.2
27465 kPa | 987 ± 1.2
27506 kPa | 986.9 ± 1.2
27555 kPa | 986.8 ± 1.2
27596 kPa | 986.9 ± 1.2
27638 kPa | 986.9 ± 1.2
27679 kPa | 987.1 ± 1.2
27728 kPa | 987 ± 1.2
27770 kPa | 987 ± 1.2
27811 kPa | 987.1 ± 1.2
27861 kPa | 987.1 ± 1.2
27904 kPa | 987 ± 1.2
27954 kPa | 987.1 ± 1.2
27997 kPa | 987.2 ± 1.2
28082 kPa | 987.3 ± 1.2
28133 kPa | 987.4 ± 1.2
28176 kPa | 987.3 ± 1.2
28221 kPa | 987.4 ± 1.2
28273 kPa | 987.3 ± 1.2
28316 kPa | 987.3 ± 1.2
28360 kPa | 987.4 ± 1.2
28404 kPa | 987.3 ± 1.2
28457 kPa | 987.4 ± 1.2
28501 kPa | 987.5 ± 1.2
28545 kPa | 987.5 ± 1.2
28598 kPa | 987.5 ± 1.2
28642 kPa | 987.5 ± 1.2
28687 kPa | 987.5 ± 1.2
28740 kPa | 987.6 ± 1.2
28785 kPa | 987.6 ± 1.2
28832 kPa | 987.7 ± 1.2
28886 kPa | 987.6 ± 1.2
28932 kPa | 987.7 ± 1.2
28977 kPa | 987.6 ± 1.2
29023 kPa | 987.9 ± 1.2
29079 kPa | 987.7 ± 1.2
29125 kPa | 987.7 ± 1.2
29181 kPa | 987.8 ± 1.2
29227 kPa | 987.9 ± 1.2
29274 kPa | 987.9 ± 1.2
29321 kPa | 987.9 ± 1.2
29379 kPa | 987.9 ± 1.2
29475 kPa | 988 ± 1.2
29523 kPa | 988.1 ± 1.2
29581 kPa | 988 ± 1.2
29630 kPa | 988 ± 1.2
29679 kPa | 988.1 ± 1.2
29739 kPa | 988.1 ± 1.2
29790 kPa | 988.1 ± 1.2
29841 kPa | 988.3 ± 1.2
29903 kPa | 988.1 ± 1.2
29949 kPa | 988.3 ± 1.2
29986 kPa | 988.3 ± 1.2
30029 kPa | 988.3 ± 1.2
30067 kPa | 988.3 ± 1.2
30103 kPa | 988.3 ± 1.2
30138 kPa | 988.3 ± 1.2
30182 kPa | 988.4 ± 1.2
30218 kPa | 988.3 ± 1.2
30253 kPa | 988.3 ± 1.2
30297 kPa | 988.2 ± 1.2
30334 kPa | 988.4 ± 1.2
30370 kPa | 988.5 ± 1.2
30407 kPa | 988.5 ± 1.2
30451 kPa | 988.5 ± 1.2
30489 kPa | 988.5 ± 1.2
30527 kPa | 988.5 ± 1.2
30576 kPa | 988.6 ± 1.2
30613 kPa | 988.5 ± 1.2
30651 kPa | 988.6 ± 1.2
30698 kPa | 988.6 ± 1.2
30738 kPa | 988.8 ± 1.2
30778 kPa | 988.7 ± 1.2
30814 kPa | 988.7 ± 1.2
30846 kPa | 988.7 ± 1.2
30873 kPa | 988.8 ± 1.2
30905 kPa | 988.7 ± 1.2
30932 kPa | 988.8 ± 1.2
30958 kPa | 988.8 ± 1.2
30990 kPa | 988.8 ± 1.2
31018 kPa | 988.8 ± 1.2
31045 kPa | 988.8 ± 1.2
31072 kPa | 988.9 ± 1.2
31105 kPa | 988.9 ± 1.2
31132 kPa | 988.9 ± 1.2
31159 kPa | 988.8 ± 1.2
31192 kPa | 989 ± 1.2
31220 kPa | 988.9 ± 1.2
31252 kPa | 989 ± 1.2
31280 kPa | 988.9 ± 1.2
31308 kPa | 989.1 ± 1.2
31335 kPa | 989 ± 1.2
31369 kPa | 989.1 ± 1.2
31398 kPa | 988.8 ± 1.2
